Results from the NIST ThermoML archive (doi:10.1016/j.jct.2014.05.019).
± gives the expanded uncertainty stated by the source.

Experiment: xn = mol fraction of the nth substance listed
Conditions: 100 kPa, Liquid; for viscosity: Falling or rolling sphere viscometry; for mass density: Vibrating tube method; for electrical conductivity: Alternating current cell with electrodes

Compound: NC(CO)C(=O)[O-].[Na+] (stereo not drawn) [sodium DL-serine] + O
- viscosity (323.15 K, x1 = 0.037): 1.26 ± 0.041 mPa·s
- viscosity (323.15 K, x1 = 0.048): 1.608 ± 0.042 mPa·s
- viscosity (323.15 K, x1 = 0.059): 2.091 ± 0.043 mPa·s
- mass density (323.15 K, x1 = 0.009): 1020.2 ± 1 kg/m3
- mass density (323.15 K, x1 = 0.018): 1051.2 ± 1 kg/m3
- mass density (323.15 K, x1 = 0.028): 1081.5 ± 1 kg/m3
- mass density (323.15 K, x1 = 0.037): 1111.1 ± 1 kg/m3
- mass density (323.15 K, x1 = 0.048): 1140.1 ± 1 kg/m3
- mass density (323.15 K, x1 = 0.058): 1170.8 ± 1 kg/m3
- electrical conductivity (328.15 K, x1 = 0.009): 4.17 ± 0.08 S/m
- electrical conductivity (328.15 K, x1 = 0.018): 6.59 ± 0.13 S/m
- electrical conductivity (328.15 K, x1 = 0.028): 8.05 ± 0.16 S/m
- electrical conductivity (328.15 K, x1 = 0.037): 8.86 ± 0.18 S/m
- electrical conductivity (328.15 K, x1 = 0.048): 9.12 ± 0.18 S/m
- electrical conductivity (328.15 K, x1 = 0.058): 8.97 ± 0.18 S/m
- viscosity (328.15 K, x1 = 0.009): 0.6217 ± 0.04 mPa·s
- viscosity (328.15 K, x1 = 0.018): 0.7448 ± 0.04 mPa·s
- viscosity (328.15 K, x1 = 0.028): 0.9186 ± 0.041 mPa·s
- viscosity (328.15 K, x1 = 0.037): 1.149 ± 0.041 mPa·s
- viscosity (328.15 K, x1 = 0.048): 1.452 ± 0.042 mPa·s
- viscosity (328.15 K, x1 = 0.059): 1.872 ± 0.042 mPa·s
- mass density (328.15 K, x1 = 0.009): 1017.8 ± 1 kg/m3
- mass density (328.15 K, x1 = 0.018): 1048.7 ± 1 kg/m3
- mass density (328.15 K, x1 = 0.028): 1078.9 ± 1 kg/m3
- mass density (328.15 K, x1 = 0.037): 1108.3 ± 1 kg/m3
- mass density (328.15 K, x1 = 0.048): 1137.3 ± 1 kg/m3
- mass density (328.15 K, x1 = 0.058): 1167.9 ± 1 kg/m3
- electrical conductivity (333.15 K, x1 = 0.009): 4.48 ± 0.09 S/m
- electrical conductivity (333.15 K, x1 = 0.018): 7.06 ± 0.14 S/m
- electrical conductivity (333.15 K, x1 = 0.028): 8.64 ± 0.17 S/m
- electrical conductivity (333.15 K, x1 = 0.037): 9.52 ± 0.19 S/m
- electrical conductivity (333.15 K, x1 = 0.048): 9.82 ± 0.2 S/m
- electrical conductivity (333.15 K, x1 = 0.058): 9.74 ± 0.19 S/m
- viscosity (333.15 K, x1 = 0.009): 0.575 ± 0.04 mPa·s
- viscosity (333.15 K, x1 = 0.018): 0.692 ± 0.04 mPa·s
- viscosity (333.15 K, x1 = 0.028): 0.8431 ± 0.041 mPa·s
- viscosity (333.15 K, x1 = 0.037): 1.055 ± 0.041 mPa·s
- viscosity (333.15 K, x1 = 0.048): 1.321 ± 0.041 mPa·s
- viscosity (333.15 K, x1 = 0.059): 1.709 ± 0.042 mPa·s
- mass density (333.15 K, x1 = 0.009): 1015.3 ± 1 kg/m3
- mass density (333.15 K, x1 = 0.018): 1046 ± 1 kg/m3
- mass density (333.15 K, x1 = 0.028): 1076.1 ± 1 kg/m3
- mass density (333.15 K, x1 = 0.037): 1105.5 ± 1 kg/m3
- mass density (333.15 K, x1 = 0.048): 1134.4 ± 1 kg/m3
- mass density (333.15 K, x1 = 0.058): 1164.9 ± 1 kg/m3
- electrical conductivity (338.15 K, x1 = 0.009): 4.8 ± 0.1 S/m
- electrical conductivity (338.15 K, x1 = 0.018): 7.53 ± 0.15 S/m
- electrical conductivity (338.15 K, x1 = 0.028): 9.24 ± 0.18 S/m
- electrical conductivity (338.15 K, x1 = 0.037): 10.2 ± 0.2 S/m
- electrical conductivity (338.15 K, x1 = 0.048): 10.6 ± 0.21 S/m
- electrical conductivity (338.15 K, x1 = 0.058): 10.5 ± 0.21 S/m
- viscosity (338.15 K, x1 = 0.009): 0.537 ± 0.04 mPa·s
- viscosity (338.15 K, x1 = 0.018): 0.6342 ± 0.04 mPa·s
- viscosity (338.15 K, x1 = 0.028): 0.7788 ± 0.04 mPa·s
- viscosity (338.15 K, x1 = 0.037): 0.9608 ± 0.041 mPa·s
- viscosity (338.15 K, x1 = 0.048): 1.206 ± 0.041 mPa·s
- viscosity (338.15 K, x1 = 0.059): 1.531 ± 0.042 mPa·s
- mass density (338.15 K, x1 = 0.009): 1012.7 ± 1 kg/m3
- mass density (338.15 K, x1 = 0.018): 1043.2 ± 1 kg/m3
- mass density (338.15 K, x1 = 0.028): 1073.3 ± 1 kg/m3
- mass density (338.15 K, x1 = 0.037): 1102.6 ± 1 kg/m3
- mass density (338.15 K, x1 = 0.048): 1131.4 ± 1 kg/m3
- mass density (338.15 K, x1 = 0.058): 1161.8 ± 1 kg/m3
- electrical conductivity (343.15 K, x1 = 0.009): 5.1 ± 0.1 S/m
- electrical conductivity (343.15 K, x1 = 0.018): 8.01 ± 0.16 S/m
- electrical conductivity (343.15 K, x1 = 0.028): 9.84 ± 0.2 S/m
- electrical conductivity (343.15 K, x1 = 0.037): 10.8 ± 0.22 S/m
- electrical conductivity (343.15 K, x1 = 0.048): 11.3 ± 0.23 S/m
- electrical conductivity (343.15 K, x1 = 0.058): 11.3 ± 0.23 S/m
- viscosity (343.15 K, x1 = 0.009): 0.4983 ± 0.04 mPa·s
- viscosity (343.15 K, x1 = 0.018): 0.5945 ± 0.04 mPa·s
- viscosity (343.15 K, x1 = 0.028): 0.72 ± 0.04 mPa·s
- viscosity (343.15 K, x1 = 0.037): 0.8858 ± 0.041 mPa·s
- viscosity (343.15 K, x1 = 0.048): 1.108 ± 0.041 mPa·s
- viscosity (343.15 K, x1 = 0.059): 1.399 ± 0.041 mPa·s
- mass density (343.15 K, x1 = 0.009): 1009.9 ± 1 kg/m3
- mass density (343.15 K, x1 = 0.018): 1040.4 ± 1 kg/m3
- mass density (343.15 K, x1 = 0.028): 1070.4 ± 1 kg/m3
- mass density (343.15 K, x1 = 0.037): 1099.6 ± 1 kg/m3
- mass density (343.15 K, x1 = 0.048): 1128.4 ± 1 kg/m3
- mass density (343.15 K, x1 = 0.058): 1158.7 ± 1 kg/m3
